From US20020143059A1, “Skin care product containing retinoids, retinoid booster and phytoestrogens in a dual compartment package” (priority 2000, published 2002)
Values belong to the compound of their own block, whether it stands above or below them.

What was measured:
CRABPII = target: T1, CRABPII (Homo sapiens, UniProt P29373); experiment: CRABPII antagonist radioactive binding assay; conditions: competition with radioactive all trans retinoic acid, ligand in excess
T1 construct: made in house; host or cells: E. coli BLR(DE3)pLysS
T1 sequence (P29373 1-138): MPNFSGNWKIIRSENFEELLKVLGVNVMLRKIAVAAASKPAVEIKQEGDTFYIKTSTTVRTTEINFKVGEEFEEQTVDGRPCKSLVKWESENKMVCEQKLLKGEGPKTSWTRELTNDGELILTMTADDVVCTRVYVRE
Text: 2.6 Assay for CRABPII antagonists (To identify B4)
2.6.1 Synthesis of CRABPII
The gene CRABPII was cloned in pET 29a-c(+) plasmid (Novagen). The cloned gene was under control of strong bacteriophage T7 transcription and translation signals. The source of T7 polymerase was provided by the host cell E.coli BLR(DE3)pLysS (Novagen). The latter has a chromosomal copy of T7 polymerase under lacUV5 control, induced by the presence of IPTG. The plasmid was transferred into E. coli BLR(DE3)pLysS cells by transformation according to the manufacturer protocol (Novagen).
An overnight culture of the transformed cells was diluted 1:100 into 2xYT containing 50 μg/mL kanamycin and 25 μg/mL chloramphenicol. The cells grew while shaking at 37° C. until the OD at 600 nm reached 0.6-0.8. Then IPTG was added to a final concentration of 1 mM and the culture was incubated for an additional two hours. The cells were harvested by centrifugation at 5000 g for 10 minutes at room temperature. The pellet was stored at −20° C. […]
The supernatant from step a. was loaded onto a 2.5×100 cm column of sephacryl S-300 (Pharmacia) at room temperature. […] Collected 2-mL fractions were checked for ultraviolet absorbance at 280 nm. […]
For the competitive assay, another ligand in excess (6670:1, 670:1 or 70:1) was added to the mix. […] The radioactivity of the filtrate was measured by scintillation counter.

Retinal Reductase = experiment: Assay for Retinal Reductase Activity, liver microsomes; assay type: biochemical, rat; conditions: test compound final 100 μM (method)
CRABP-II = CRABP-II expression in adult fibroblasts (dot blot); assay type: cell-based, human; conditions: for CRABP-II production / % as Control: 1 μM phytoestrogen alone; for % as Control: control as 100%
[1] = Retinol stability in the presence of phytoestrogenic flavonoids (OD 360 nm); assay type: physicochemical
Method: Retinol was dissolved as a 10% solution in aqueous ethanol (1:1 water:ethanol). This solution was diluted to 0.001% approximately 30 μM). This solution gave an OD of about 0.35 absorption unit at 360 nm in a 96 well plate spectrophotometer.
Aqueous ethanolic stock solutions of the genistein, daidzein were prepared as 0.1%, 0.01% or 0.001%. To 200 μl of 0.001% retinol solution in a 96 well plate was added 20 μl of the flavonoid (i.e. 1-10 dilution) giving a final flavonoid concentration of 0.01, 0.001 and 0.0001%. The plates were mixed and an initial OD reading was taken at 360 nm. The plates were incubated at room temperature in the dark for up to 2 days and subsequent readings were taken at 8, 24 and 48 hours. The OD readings at these time points were normalized to the 0 time point reading. The retinol stability was expressed as % of retinol (OD reading) at 0 time. The data is shown in example 5.
Example 5: The following tables show the effect of genistein and daidzein on destabilizing retinol. The experiment was done as described in methods section. The OD readings from duplicate measurements were averaged and given here.

TGase I = experiment: Transglutaminase (TGase I ELISA) assay in cultured keratinocytes; assay type: cell-based; conditions: for % Inhibition Overall TG (−ROH/RE): added effect of booster+retinol induced TGase inhibition over retinol alone
[2] = Retinol stability in the presence of boosters (OD 360 nm); assay type: physicochemical; conditions: booster approximately 0.1%, 60 hours at room temperature in the dark, approx. 50% aqueous ethanol
Method: Retinol (50% in tween 80) was dissolved in approximately 50% aqueous ethanol to provide a solution giving an OD at 360 nm of approximately 0.6 when measured in a 200 μl volume in a 96 well plate using a standard 96 well spectrophotometer.
Booster molecules were added at approximately 0.1% concentration and the OD 360 measured as above immediately and after 60 hours at room temperature in the dark. A correction was applied to the OD after 60 hours (divide by 0.85) to account for increased concentration of the retinol due to evaporation of solvent from the plate.

LRAT = target: T2, LRAT (Bos taurus, UniProt Q9BGL2); experiment: Assay for LRAT activity, RPE microsomes; assay type: biochemical, bovine
T2 construct: followed by approximately 15 μg of RPE microsomal protein; tissue W. L. Lawson Co., Lincoln, Nebr; host or cells: bovine retinal pigment epithelium microsomes
T2 sequence (Q9BGL2 1-230): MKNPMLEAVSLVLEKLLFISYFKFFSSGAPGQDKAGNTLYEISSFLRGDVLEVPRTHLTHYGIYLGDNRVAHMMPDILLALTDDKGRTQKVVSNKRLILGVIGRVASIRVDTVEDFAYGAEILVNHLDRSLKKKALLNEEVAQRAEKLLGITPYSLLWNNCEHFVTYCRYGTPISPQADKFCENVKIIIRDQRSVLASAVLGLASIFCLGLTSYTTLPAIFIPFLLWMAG

Retinol Dehydrogenase = experiment: Assay for Retinol Dehydrogenase Activity, liver microsomes; assay type: biochemical, rat; conditions: test compound final 100 μM (method)
Method: 2.2 Isolation of rat liver microsomes (modified from R. Martini & M. Murray, “Participation of P450 3A Enzymes in Rat Hepatic Microsomal Renitoic Acid 4-Hydroxylation”, Archives Biochem. Biophys. 303, 57-66 (1993)).
The resulting homogenate was successively centrifuged for 30 min. at 10,000 g, 30 min. at 20,000 g, and 15 min. at 30,000 g, and the resulting supernatant was ultracentrifuged for 80 min. at 105,000 g. […] Protein concentrations were determined as described above.
2.4 Assay for Retinol Dehydrogenase Activity (To identify B2)
The following stock solutions were prepared:
50 mM KH2PO4, pH 7.4 buffer, sterile filtered.
10 mM all trans Retinol (Sigma R7632) in DMSO.
200 mM Nicotinamide adenine dinucleotide phosphate, sodium salt (NADP) (Sigma N0505) in sterile water.
40 mM test compound in appropriate solvent (water, buffer, ethanol, chloroform or DMSO).
1:10 dilution of rat liver Microsomes in 50 mM KH2PO4, pH 7.4 buffer (4 ug/ul).
In a two-dram glass vial with screw cap, add the following in order:
Buffer to give a final volume of 400 μl […]
Aliquots of 60 μL were injected immediately and analyzed for retinoid content.
The chromatography instrumentation consisted of a Waters 600 gradient controller/pump, a Waters 996 Photodiode Array detector and a Waters 474 Scanning Fluorescence detector. […] The eluate was monitored for absorbance at 325 nm and fluorescence at 325 ex/480 em. […]

Compound: CCCCCCC(O)CCCCCCCCCCC(=O)O (stereo not drawn) [12-Hydroxystearic Acid]
% Inhibition CRABPII (CRABPII): >50%

Compound: CC1(C)[C@@H](OC(=O)CCC(=O)O)CC[C@]2(C)[C@H]3C(=O)C=C4[C@@H]5C[C@@](C)(C(=O)O)CC[C@]5(C)CC[C@@]4(C)[C@]3(C)CC[C@@H]12 [Carbenoxolone, reference compound]
% Inhibition Retinal Reductase (Retinal Reductase): 26% +/− 2

Compound: O=c1c(-c2ccc(O)cc2)coc2cc(O)ccc12 [Daidzein]
CRABP-II production (CRABP-II): 1.49+/−0.66 | % as Control (CRABP-II): 513+/−227% | Retinol stability, % of retinol (OD reading) at 0 time ([1]; 8 h, 0.0001 %): 82% | Retinol stability, % of retinol (OD reading) at 0 time ([1]; 24 h, 0.0001 %): 78% | Retinol stability, % of retinol (OD reading) at 0 time ([1]; 48 h, 0.0001 %): 76%

Compound: CN1CCN(C)C1=O [Dimethyl Imidazolidinone]
% Inhibition Overall TG (−ROH/RE) (TGase I): 22% | FOLD INCREASE IN RATE OF RETINOL LOSS [2]: 1.4 fold

Compound: O=c1c(-c2ccc(O)cc2)coc2cc(O)cc(O)c12 [Genistein]
stimulation of CRABP-II (CRABP-II; 1 μM alone): stimulated CRABP-II significantly | CRABP-II production (CRABP-II): 1.9+/−0.71 | % as Control (CRABP-II): 655+/−247% | effect of flavonoid on instability of retinol ([1]; up to 48 hours): marked increases in the instability of retinol

Compound: CC1(C)[C@@H](O)CC[C@]2(C)[C@H]3C(=O)C=C4[C@@H]5C[C@@](C)(C(=O)O)CC[C@]5(C)CC[C@@]4(C)[C@]3(C)CC[C@@H]12 [Glycyrretinic Acid]
IC50 (TGase I; Keratinocyte, booster in combination with a constant retinol concentration of 10^−7M, read-out: Overall TG (IC 50)): 8.64 µM | FOLD INCREASE IN RATE OF RETINOL LOSS [2]: 1.6 fold

The next lines start with the values.

% Inhibition Retinal Reductase (Retinal Reductase): 62% +/− 2 | FOLD INCREASE IN RATE OF RETINOL LOSS [2]: 3.4 fold
Compound: CCCCC/C=C\C/C=C\CCCCCCCC(=O)O [Linoleic Acid]

% Inhibition Overall TG (−ROH/RE) (TGase I): 59% | % Inhibition LRAT (10 μm) (LRAT; 10 μm compound): 11% +/− 9 | % Inhibition LRAT (100 μm) (LRAT; 100 μm compound): 51% +/− 15 | FOLD INCREASE IN RATE OF RETINOL LOSS [2]: 3.0 fold
Compound: CCCCC/C=C\C/C=C\CCCCCCCC(=O)N(CCO)CCO [Linoleoyl Diethanolamide]

% Inhibition Retinal Reductase (Retinal Reductase): 26%
Compound: CCCCCCCCCCCCCC(=O)O [Myristic Acid]

retinol degraded ([1]; 8 h, 0.001 %): 8% | Retinol stability, % of retinol (OD reading) at 0 time ([1]; 24 h, 0.001 %): 86% | retinol degraded ([1]; 24 h, 0.001 %): 14% | Retinol stability, % of retinol (OD reading) at 0 time ([1]; 48 h, 0.001 %): 81% | retinol degraded ([1]; 48 h, 0.001 %): 19%
Compound: CC1=C(/C=C/C(C)=C/C=C/C(C)=C/CO)C(C)(C)CCC1 [Retinol]

% Inhibition Retinal Reductase (Retinal Reductase): 6%
Compound: COc1cc(C=O)ccc1O [Vanillin]

% Increase Retinol Dehydrogenase (Retinol Dehydrogenase): 21% increase
Compound: Phosphatidyl Choline

% Increase Retinol Dehydrogenase (Retinol Dehydrogenase): 26% increase
Compound: Sphingomyelin
